Here are results for 1 compound from paper PMC6063448, “Antimicrobial activity of linear lipopeptides derived from BP100 towards plant pathogens” (PLoS ONE, 2018).

For one data set, the system named is T1, proteinase K.
T1 construct: purchased Sigma-Aldrich Corporation, Spain
As to the kind of experiment: Susceptibility to protease degradation. It is filed as in vitro ADME. The settings on record: proteinase K (isolated protease) in TRIS buffer; 50 μg/mL peptide, 1 μg/mL proteinase K, 100 mM TRIS buffer pH 7.6, 25°C, 60 min; decrease of HPLC peak area (220 nm); read-out: Digestion with proteinase K (percentage of degraded peptide). As for the experimental part:
Digestion of BP100 and of 16 selected lipopeptides was carried out by treating 50 μg/mL peptide with 1 μg/mL proteinase K (Sigma-Aldrich Corporation, Spain) in 100 mM TRIS buffer, pH 7.6, at 25°C. The peptide cleavage after 60 min was determined by HPLC using a Kromasil (4.6 × 40 mm; 3 μm particle size) C18 reverse-phase column. Linear gradients of 0.1% aqueous TFA and 0.1% TFA in CH3CN were run from 0.98:0.02 to 0:1 over 12 min with UV detection at 220 nm. Digestion was estimated as the percentage of degraded lipopeptide calculated from the decrease of the HPLC peak area of the native peptide.

The test system of a further data set is tobacco leaves. As to the kind of experiment: Effect of peptide infiltration on tobacco leaves. The format is in vivo. The settings on record: 250 μM, 100 μL infiltrated into mesophyll, measured after 48 h.
The subject of data set [1] is Xanthomonas axonopodis pv. vesicatoria 2133–2. As to the kind of experiment: MIC, growth inhibition in microtiter plates (TSB). It is filed as cell-based. The conditions noted are these: Xav, 25°C, 48 h, OD 600 nm, lowest concentration with no growth, given as interval of tested concentrations, three replicates, experiment repeated twice. A digest of the protocol: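 Peptides, dissolved in water at 1 mM and filter-sterilized, were diluted and mixed with bacterial suspension (10^8 CFU mL^-1 before mixing) in TSB. Plates were incubated at 25°C with shaking, and OD600 was read hourly for 48 h. MIC was the lowest concentration with no growth at the end.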

For data set [2], the system named is Xanthomonas arboricola pv. pruni CFBP5563. As to the kind of experiment: MIC, growth inhibition in microtiter plates (TSB). The format is cell-based. The settings on record: Xap, 25°C, 48 h, OD 600 nm, lowest concentration with no growth, given as interval of tested concentrations, three replicates, experiment repeated twice. The method, boiled down: (§1)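 OD600 readout, hourly over 48 h at 25°C, 20 s shaking; TSB medium; inoculum from 10^8 CFU mL^-1 water suspension; triplicates, experiment run twice; MIC = lowest concentration showing no growth at endpoint.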

Data set [3] deals with Pseudomonas syringae pv. syringae EPS94. The data set is described as follows: MIC, growth inhibition in microtiter plates (TSB). The format is cell-based. The conditions noted are these: Pss, 25°C, 48 h, OD 600 nm, lowest concentration with no growth, given as interval of tested concentrations, three replicates, experiment repeated twice. The method, boiled down:
as §1

In data set [4] the test system is Xanthomonas fragariae Xf349-9A. As to the kind of experiment: MIC, growth inhibition in microtiter plates (TSB). The format is cell-based. The conditions noted are these: Xf, 25°C, 48 h, OD 600 nm, lowest concentration with no growth, given as interval of tested concentrations, three replicates, experiment repeated twice. A digest of the protocol: as §1
The test system of data set [5] is Pseudomonas syringae pv. actinidiae Psa3700.1.1. As to the kind of experiment: MIC, growth inhibition in microtiter plates (TSB). The format is cell-based. The settings on record: Psa, 25°C, 48 h, OD 600 nm, lowest concentration with no growth, given as interval of tested concentrations, three replicates, experiment repeated twice. The method, boiled down: as §1
In data set [6] the test system is Erwinia amylovora PMV6076. The data set is described as follows: MIC, growth inhibition in microtiter plates (TSB). The format is cell-based. The settings on record: Ea, 25°C, 48 h, OD 600 nm, lowest concentration with no growth, given as interval of tested concentrations, three replicates, experiment repeated twice. A digest of the protocol:
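Agar-grown cells in water (10^8 CFU mL^-1 stock suspension) + serially diluted peptide (1 mM water stock) in TSB; 25°C, 48 h, OD600 hourly; no-growth endpoint gives MIC.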

`CCCC(=O)NCCCC[C@H](NC(=O)[C@@H](NC(=O)[C@H](CCCCN)NC(=O)[C@H](CCCCN)NC(=O)[C@H](Cc1ccccc1)NC(=O)[C@H](CC(C)C)NC(=O)[C@H](CCCCN)NC(=O)[C@H](CCCCN)NC(C)=O)[C@@H](C)CC)C(=O)N[C@@H](CCCCN)C(=O)N[C@@H](Cc1ccc(O)cc1)C(=O)N[C@@H](CC(C)C)C(N)=O` [BP387, Ac-KKLFKKIK(COC3H7)KYL-NH2]: the metabolised at 1 h, 50 μg/mL in the data set on proteinase K worked out at 15%. The “Size of the lesions in infiltrated tobacco leaves (diameter)” value with tobacco leaves is 9.2 ± 0.96 mm. Moreover, the MIC was 1.6 to 3.1 µM in data set [1]; 3.1 to 6.2 µM in data set [2]; 3.1 to 6.2 µM in data set [3]; 1.6 to 3.1 µM in data set [4]; 3.1 to 6.2 µM in data set [5]; 3.1 to 6.2 µM in data set [6].
